Laboratory results published in US20250145606A1 (Arcus Biosciences, Inc., priority 2023, published 2025).
pIC50: −log10 of the molar value. Read-outs that look alike come from different tables or passages of the source.

Columns and labels:
[1] = tested on: Phospho-KIT (Y703) in M07e cells; test: Phospho-KIT (Y703) cellular assay in M07e cells; assay type: cell-based; settings: M-07e, M07e cells
Summary of the method: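 Serum-starved M07e cells preincubated 50 min at 37° C with 11-point half-log compound titration, then stimulated 10 min with SCF at 90.9 ng/mL final. Fixed, permeabilized cells stained for phospho-KIT Y703 and read by flow cytometry (live-gated geometric mean); IC50 by 4-parameter fit normalized to DMSO and positive control.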

[2] = target: CSF1R (Homo sapiens (Human), UniProt P07333); test: Inhibition of CSF1R kinase activity (HTRF KinEASE-TK); settings: biochemical, HTRF KinEASE-TK
Summary of the method: (§1)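 Phosphorylation of biotinylated TK peptide read by HTRF (665/620 nm ratio) after 120 min at rt, following 1 h enzyme–compound preincubation. ATP (2× mix): 20 μM CSF1R, 16 μM c-Kit, 40 μM PDGFRβ, 1 μM PDGFRα; MgCl2 10 mM except c-Kit 5 mM. 22-point 1:2 titration; four-parameter IC50.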

[3] = target: PDGFRβ (Homo sapiens (Human), UniProt P09619); test: Inhibition of PDGFRβ kinase activity (HTRF KinEASE-TK); settings: biochemical, HTRF KinEASE-TK
Summary of the method: as §1

[4] = target: PDGFRα (Homo sapiens (Human), UniProt P16234); test: Inhibition of PDGFRα kinase activity (HTRF KinEASE-TK); settings: biochemical, HTRF KinEASE-TK
Summary of the method: as §1

[5] = target: c-Kit (Homo sapiens (Human), UniProt P10721); test: Inhibition of c-Kit kinase activity (HTRF KinEASE-TK); assay type: biochemical; settings: biochemical, HTRF KinEASE-TK
Summary of the method: as §1

[6] = target: FLT3 (Homo sapiens (Human), UniProt P36888); test: Inhibition of FLT3 kinase activity (HTRF KinEASE-TK); assay type: biochemical; settings: biochemical, HTRF KinEASE-TK
Procedure: Inhibition of c-Kit, PDGFRα, PDGFRβ, CSFIR and FLT3 Kinase Activity
Compounds were evaluated to determine the potency with which they inhibit the kinase activity of the following panel of tyrosine kinases: c-Kit (SignalChem, Product #: K06-11BG), PDGFRα (SignalChem, Product #: P12-18G), PDGFRβ (SignalChem, Product #: P13-11G), CSFIR (SignalChem, Product #: C74-11G) and FLT3 (Invitrogen, Product #: PR4666C). Activity was determined as a function of phosphorylated biotinylated TK peptide generated by the transfer of phosphate from ATP as measured by the use of the HTRF KinEASE-TK assay kit (Cisbio, Product #: 62TKOPEJ). Levels of phosphorylated biotinylated TK peptide (Part 61TKOBLC of KinEASE assay kit) are quantified by its capture by phosphor-TK-Antibody-Cryptate (Part of KinEASE assay kit) and XL665-labeled Streptavidin (Part 610SAXLG of KinEASE assay kit) followed by measurement of Time-Resolved Fluorescence Resonance Energy Transfer (TR-FRET) signal. On the day of the assay, compounds were solubilized in DMSO and dispensed into a 384-well white Opti-plate (PerkinElmer, catalog #6007290) to generate a 22 point 1:2 titration. Enzyme solution was prepared for each of the tyrosine kinases in 50 mM HEPES, pH 7.4, 5 mM MgCl2 for c-Kit or 10 mM MgCl2 for FLT3, CSFIR, PDGFRa and PDGFRβ, 2 mM MnCl2, 0.01% Brij-35 and 0.01% BSA. Working enzyme concentrations were prepared for c-Kit at 2 nM (2×), PDGFRa and PDGFRß at 10 nM (2×), CSFIR at 2 nM (2×) and FLT3 at 0.4 nM (2×). Five microliters of enzyme dilution of each tyrosine kinase were added to their respective 384-well white Opti-plate pre-dispensed with compound and allowed to incubate for 1 h at rt. Utilizing the same enzyme buffer recipe, 2x substrate mixes were prepared for each enzyme as follows: For c-Kit, 1.6 μM (2×) TK substrate and 16 μM (2×) ATP (Promega, catalog #V915). For PDGFRα, 3.2 μM TK substrate and 1 μM ATP. For PDGFRβ, 3.2 μM TK substrate and 40 μM ATP. For CSFIR, […] TK substrate and 20 μM ATP. For FLT3, 3.2 μM TK substrate and 100 μM ATP. Reactions were initiated by addition of 5 μL of the respective 2x substrate mix to each well of the plates containing the respective tyrosine kinase enzymes and were allowed to proceed for 120 minutes at rt, except for FLT3, the reaction time is 45 min. Following the reaction, 10 μL of detection mix consisting of 0.2 μM (2×) of Streptavidin-XL665 and 2 μM (2×) of TK-Antibody-Cryptate prepared in detection buffer (Part 62SDBRDF of KinEASE assay kit) was added and then allowed to incubate for 60 min. The TR-FRET signal was quantified by measuring the ratio of emission at 665 nm to 620 nm after excitation at 320 nm by reading on a PerkinElmer Envision multimode reader. Compound potencies (IC50 values) were determined using a standard 4-parameter non-linear regression fit.

[7] = Phospho-KIT (Y703), read-out: M07e Cell IC50

CSF1R, sequence (P07333 20-972): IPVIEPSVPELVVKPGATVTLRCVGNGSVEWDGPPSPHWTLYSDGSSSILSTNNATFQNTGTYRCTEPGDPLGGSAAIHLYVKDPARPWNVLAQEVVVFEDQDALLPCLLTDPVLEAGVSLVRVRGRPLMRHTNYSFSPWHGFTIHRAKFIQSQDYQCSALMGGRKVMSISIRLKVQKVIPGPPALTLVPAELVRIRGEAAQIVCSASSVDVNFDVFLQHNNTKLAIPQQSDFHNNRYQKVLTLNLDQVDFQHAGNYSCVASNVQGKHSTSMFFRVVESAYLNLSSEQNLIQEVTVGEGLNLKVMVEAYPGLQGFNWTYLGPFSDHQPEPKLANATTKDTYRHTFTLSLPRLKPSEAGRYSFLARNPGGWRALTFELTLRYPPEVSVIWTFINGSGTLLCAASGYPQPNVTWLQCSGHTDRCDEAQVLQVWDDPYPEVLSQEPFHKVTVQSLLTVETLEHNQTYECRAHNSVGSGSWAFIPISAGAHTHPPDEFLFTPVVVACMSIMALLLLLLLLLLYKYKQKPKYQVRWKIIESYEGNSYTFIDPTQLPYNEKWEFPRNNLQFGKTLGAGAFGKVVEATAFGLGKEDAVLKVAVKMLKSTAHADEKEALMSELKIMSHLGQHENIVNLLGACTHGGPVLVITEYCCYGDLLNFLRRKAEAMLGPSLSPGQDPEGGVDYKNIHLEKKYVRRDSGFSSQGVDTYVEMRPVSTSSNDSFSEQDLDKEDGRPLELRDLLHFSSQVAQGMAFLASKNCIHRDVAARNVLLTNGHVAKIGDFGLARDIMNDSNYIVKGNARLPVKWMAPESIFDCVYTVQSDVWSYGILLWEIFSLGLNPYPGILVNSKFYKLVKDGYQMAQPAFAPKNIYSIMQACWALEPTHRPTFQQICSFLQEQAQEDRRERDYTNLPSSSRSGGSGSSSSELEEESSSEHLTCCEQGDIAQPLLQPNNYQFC
c-Kit, sequence (P10721 26-976): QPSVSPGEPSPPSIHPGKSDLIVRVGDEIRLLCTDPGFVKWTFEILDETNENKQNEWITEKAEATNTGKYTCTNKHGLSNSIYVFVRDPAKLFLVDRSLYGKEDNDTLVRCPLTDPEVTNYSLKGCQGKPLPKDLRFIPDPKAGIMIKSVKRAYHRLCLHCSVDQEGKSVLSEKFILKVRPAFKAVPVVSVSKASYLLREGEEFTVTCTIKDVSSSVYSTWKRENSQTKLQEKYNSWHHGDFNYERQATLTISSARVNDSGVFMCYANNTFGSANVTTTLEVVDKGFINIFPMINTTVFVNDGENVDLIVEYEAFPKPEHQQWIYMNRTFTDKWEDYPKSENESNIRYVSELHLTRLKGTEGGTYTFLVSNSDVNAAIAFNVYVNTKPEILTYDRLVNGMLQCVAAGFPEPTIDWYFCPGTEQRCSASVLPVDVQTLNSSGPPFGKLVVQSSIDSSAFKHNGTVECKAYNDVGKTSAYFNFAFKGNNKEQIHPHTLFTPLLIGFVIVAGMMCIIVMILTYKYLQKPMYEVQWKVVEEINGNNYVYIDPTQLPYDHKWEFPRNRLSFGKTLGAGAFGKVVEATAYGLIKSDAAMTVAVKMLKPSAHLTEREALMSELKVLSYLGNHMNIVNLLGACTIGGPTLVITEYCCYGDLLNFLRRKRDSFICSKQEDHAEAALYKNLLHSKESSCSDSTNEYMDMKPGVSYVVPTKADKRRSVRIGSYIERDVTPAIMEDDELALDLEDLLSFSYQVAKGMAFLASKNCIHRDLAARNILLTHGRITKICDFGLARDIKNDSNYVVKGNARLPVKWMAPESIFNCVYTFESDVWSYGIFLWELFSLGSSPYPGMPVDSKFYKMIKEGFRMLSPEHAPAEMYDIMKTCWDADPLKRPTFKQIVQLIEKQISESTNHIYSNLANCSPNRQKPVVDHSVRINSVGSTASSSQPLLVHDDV
PDGFRα, sequence (P16234 24-1089): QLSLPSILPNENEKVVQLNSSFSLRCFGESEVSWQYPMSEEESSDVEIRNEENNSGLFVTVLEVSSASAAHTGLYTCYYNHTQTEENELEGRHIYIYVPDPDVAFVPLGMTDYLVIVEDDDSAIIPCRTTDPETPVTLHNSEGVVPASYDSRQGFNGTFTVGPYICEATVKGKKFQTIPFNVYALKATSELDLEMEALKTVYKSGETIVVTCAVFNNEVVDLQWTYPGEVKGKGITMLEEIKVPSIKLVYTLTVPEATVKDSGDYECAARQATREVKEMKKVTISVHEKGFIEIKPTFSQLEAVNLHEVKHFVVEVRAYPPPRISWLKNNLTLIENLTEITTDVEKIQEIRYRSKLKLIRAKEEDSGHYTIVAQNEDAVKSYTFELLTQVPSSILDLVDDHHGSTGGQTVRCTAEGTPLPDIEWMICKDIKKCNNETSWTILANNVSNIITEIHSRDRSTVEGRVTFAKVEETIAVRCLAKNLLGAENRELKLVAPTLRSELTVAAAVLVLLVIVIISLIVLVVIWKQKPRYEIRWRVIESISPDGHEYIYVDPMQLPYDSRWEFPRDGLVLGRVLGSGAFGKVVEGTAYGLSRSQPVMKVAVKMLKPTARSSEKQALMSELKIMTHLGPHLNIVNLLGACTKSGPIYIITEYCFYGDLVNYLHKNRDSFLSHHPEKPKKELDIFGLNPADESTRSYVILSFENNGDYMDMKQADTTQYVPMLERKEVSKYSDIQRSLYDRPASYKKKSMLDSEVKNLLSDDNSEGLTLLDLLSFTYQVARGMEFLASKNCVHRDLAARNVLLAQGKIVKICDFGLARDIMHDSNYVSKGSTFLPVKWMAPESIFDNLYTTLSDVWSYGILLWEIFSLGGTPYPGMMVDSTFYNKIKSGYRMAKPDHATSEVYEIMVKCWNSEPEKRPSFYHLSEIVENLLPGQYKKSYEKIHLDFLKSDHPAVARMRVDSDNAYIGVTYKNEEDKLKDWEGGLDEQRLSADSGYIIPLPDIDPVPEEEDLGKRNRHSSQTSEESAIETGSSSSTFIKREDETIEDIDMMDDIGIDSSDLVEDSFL
PDGFRβ, sequence (P09619 33-1106): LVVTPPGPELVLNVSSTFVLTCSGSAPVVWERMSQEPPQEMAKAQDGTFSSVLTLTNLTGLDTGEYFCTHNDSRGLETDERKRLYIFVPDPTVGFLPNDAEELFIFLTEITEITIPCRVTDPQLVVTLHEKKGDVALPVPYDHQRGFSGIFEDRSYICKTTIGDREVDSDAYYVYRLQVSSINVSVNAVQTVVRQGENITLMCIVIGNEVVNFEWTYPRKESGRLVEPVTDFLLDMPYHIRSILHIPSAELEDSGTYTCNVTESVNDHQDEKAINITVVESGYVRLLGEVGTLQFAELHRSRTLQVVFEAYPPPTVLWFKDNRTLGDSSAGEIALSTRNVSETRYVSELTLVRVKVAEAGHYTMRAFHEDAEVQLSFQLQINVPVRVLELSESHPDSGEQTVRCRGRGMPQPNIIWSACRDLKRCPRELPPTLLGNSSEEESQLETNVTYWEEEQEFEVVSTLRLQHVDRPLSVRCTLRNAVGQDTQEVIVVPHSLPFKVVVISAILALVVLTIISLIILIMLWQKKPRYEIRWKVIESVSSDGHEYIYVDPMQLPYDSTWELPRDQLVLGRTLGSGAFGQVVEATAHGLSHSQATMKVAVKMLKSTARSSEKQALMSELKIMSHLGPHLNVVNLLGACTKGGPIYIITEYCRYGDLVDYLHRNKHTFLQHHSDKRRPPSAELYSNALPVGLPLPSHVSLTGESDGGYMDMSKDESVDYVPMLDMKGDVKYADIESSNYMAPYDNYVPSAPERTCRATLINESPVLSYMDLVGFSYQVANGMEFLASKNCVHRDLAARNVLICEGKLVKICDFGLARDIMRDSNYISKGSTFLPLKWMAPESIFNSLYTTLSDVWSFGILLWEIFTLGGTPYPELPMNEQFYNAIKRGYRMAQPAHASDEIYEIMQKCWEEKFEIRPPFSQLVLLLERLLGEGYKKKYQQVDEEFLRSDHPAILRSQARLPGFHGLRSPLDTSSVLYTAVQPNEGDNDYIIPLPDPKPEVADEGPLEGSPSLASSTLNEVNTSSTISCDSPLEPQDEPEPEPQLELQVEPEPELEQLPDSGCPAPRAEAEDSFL
FLT3, sequence (P36888 27-993): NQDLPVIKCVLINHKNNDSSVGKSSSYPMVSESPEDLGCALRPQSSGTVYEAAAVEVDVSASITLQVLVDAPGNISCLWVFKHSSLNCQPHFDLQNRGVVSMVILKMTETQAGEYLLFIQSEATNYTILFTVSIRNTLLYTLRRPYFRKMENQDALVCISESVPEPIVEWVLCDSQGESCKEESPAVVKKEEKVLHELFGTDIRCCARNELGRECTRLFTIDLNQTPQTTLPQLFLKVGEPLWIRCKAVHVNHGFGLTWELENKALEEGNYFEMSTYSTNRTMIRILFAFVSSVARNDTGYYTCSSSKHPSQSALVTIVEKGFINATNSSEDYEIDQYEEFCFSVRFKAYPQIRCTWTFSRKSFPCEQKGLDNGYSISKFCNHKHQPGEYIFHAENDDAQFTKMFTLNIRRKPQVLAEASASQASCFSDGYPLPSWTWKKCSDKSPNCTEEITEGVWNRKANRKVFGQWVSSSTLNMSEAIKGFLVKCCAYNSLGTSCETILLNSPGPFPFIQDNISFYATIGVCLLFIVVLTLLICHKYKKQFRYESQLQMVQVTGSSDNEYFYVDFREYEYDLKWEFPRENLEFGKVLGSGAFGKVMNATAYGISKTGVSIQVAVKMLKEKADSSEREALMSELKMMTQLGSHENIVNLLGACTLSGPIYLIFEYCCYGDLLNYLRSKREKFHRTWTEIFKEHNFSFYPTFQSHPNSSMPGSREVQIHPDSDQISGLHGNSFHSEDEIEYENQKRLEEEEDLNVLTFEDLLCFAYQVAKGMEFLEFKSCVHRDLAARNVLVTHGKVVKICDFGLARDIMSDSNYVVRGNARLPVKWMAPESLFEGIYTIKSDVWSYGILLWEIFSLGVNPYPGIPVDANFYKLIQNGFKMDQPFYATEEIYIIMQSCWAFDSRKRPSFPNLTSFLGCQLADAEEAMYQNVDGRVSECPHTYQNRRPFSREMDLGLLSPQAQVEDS

Structure (SMILES) | pIC50 [1, 7] | pIC50 [2] | pIC50 [3] | pIC50 [4] | pIC50 [5] | pIC50 [6] | pIC50 ([1]; read-out: Phospho-KIT (Y703) cellular IC50)
Cc1ncc(C(=O)Nc2cc(C(=O)Nc3ccc(C4CC4)nc3)c(F)cc2C)s1 [Example 24, N-[5-[(6-Cyclopropylpyridin-3-yl)carbamoyl]-4-fluoro-2-methylphenyl]-2-methyl-1,3-thiazole-5-carboxamide] | > 7.00 | < 6.00 | – | – | > 7.00 | < 6.00 | –
Cc1cc(F)c(C(=O)NCC2(F)CCC2)cc1NC(=O)c1cnc(NC(=O)N2CCC2)s1 [Example 104, 2-(Azetidine-1-carbonylamino)-N-[4-fluoro-5-[(1-fluorocyclobutyl)methylcarbamoyl]-2-methylphenyl]-1,3-thiazole-5-carboxamide] | > 7.00 | 6.00 to 7.00 | – | – | > 7.00 | < 6.00 | –
Cc1ncc(C(=O)Nc2cc(C(=O)Nc3cnc(OC4CC4)cn3)c(F)cc2C)s1 [Example 13, N-[5-[(5-Cyclopropyloxypyrazin-2-yl)carbamoyl]-4-fluoro-2-methylphenyl]-2-methyl-1,3-thiazole-5-carboxamide] | > 7.00 | < 6.00 | – | – | > 7.00 | < 6.00 | –
Nc1ncc(C(=O)Nc2cc(C(=O)Nc3ccc(OC4CC4)cn3)c(F)cc2F)s1 [Example 222, 2-Amino-N-[5-[(5-cyclopropyloxypyridin-2-yl)carbamoyl]-2,4-difluorophenyl]-1,3-thiazole-5-carboxamide] | > 7.00 | – | < 6.00 | < 6.00 | > 7.00 | < 6.00 | –
Cc1cc(F)c(C(=O)NCC2(F)CC2)cc1NC(=O)c1cnc(N)s1 [Example 193, 2-Amino-N-[4-fluoro-5-[(1-fluorocyclopropyl)methylcarbamoyl]-2-methylphenyl]-1,3-thiazole-5-carboxamide] | > 7.00 | < 6.00 | – | – | > 7.00 | < 6.00 | –
Cc1ncc(C(=O)Nc2cc(C(=O)Nc3ccc(C(F)(F)F)cn3)c(F)cc2C)s1 [Example 14, N-[4-Fluoro-2-methyl-5-[[5-(trifluoromethyl)pyridin-2-yl]carbamoyl]phenyl]-2-methyl-1,3-thiazole-5-carboxamide] | – | < 6.00 | < 6.00 | < 6.00 | > 7.00 | < 6.00 | –
Cc1cc(F)c(C(=O)Nc2ccc(OC3CC3)cn2)cc1NC(=O)c1cnc(NC(=O)C(F)(F)F)s1 [Example 239, N-[5-[(5-cyclopropyloxypyridin-2-yl)carbamoyl]-4-fluoro-2-methylphenyl]-2-[(2,2,2-trifluoroacetyl)amino]-1,3-thiazole-5-carboxamide] | – | < 6.00 | 6.00 to 7.00 | < 6.00 | > 7.00 | < 6.00 | –
Cc1cnc(NC(=O)c2cc(NC(=O)c3cnc(N)s3)c(C)cc2F)s1 [Example 160, 2-Amino-N-[4-fluoro-2-methyl-5-[(5-methyl-1,3-thiazol-2-yl)carbamoyl]phenyl]-1,3-thiazole-5-carboxamide] | – | 6.00 to 7.00 | 6.00 to 7.00 | < 6.00 | > 7.00 | < 6.00 | –
Cc1cc(F)c(C(=O)Nc2ccc(OC(F)F)cc2)cc1NC(=O)c1cnc(N)s1 [Example 227, 2-Amino-N-[5-[[4-(difluoromethoxy)phenyl]carbamoyl]-4-fluoro-2-methylphenyl]-1,3-thiazole-5-carboxamide] | – | > 7.00 | > 7.00 | > 7.00 | > 7.00 | < 6.00 | –

More lines, now with the values ahead:

pIC50 [1, 7] | pIC50 [2] | pIC50 [3] | pIC50 [4] | pIC50 [5] | pIC50 [6] | pIC50 ([1]; read-out: Phospho-KIT (Y703) cellular IC50) | Structure (SMILES)
> 7.00 | 6.00 to 7.00 | 6.00 to 7.00 | < 6.00 | > 7.00 | < 6.00 | – | Cc1cc(F)c(C(=O)Nc2ccc(OC3CC3)cn2)cc1NC(=O)c1cnc(N)s1 [Example 129, 2-Amino-N-[5-[(5-cyclopropyloxypyridin-2-yl)carbamoyl]-4-fluoro-2-methylphenyl]-1,3-thiazole-5-carboxamide]
> 7.00 | – | < 6.00 | < 6.00 | > 7.00 | < 6.00 | – | COCCn1ccc(NC(=O)c2cc(NC(=O)c3cnc(N)s3)c(C)cc2F)n1 [Example 154, 2-Amino-N-[4-fluoro-5-[[1-(2-methoxyethyl)pyrazol-3-yl]carbamoyl]-2-methylphenyl]-1,3-thiazole-5-carboxamide]
> 7.00 | < 6.00 | < 6.00 | < 6.00 | > 7.00 | < 6.00 | – | Cc1ncc(C(=O)Nc2cc(C(=O)Nc3cnc(OCC(F)(F)F)cn3)c(F)cc2C)s1 [Example 89, N-{5-[N-5-(2,2,2-trifluoroethoxy)-2-pyrazinylcarbamoyl]-4-fluoro-2-tolyl}-2-methyl-1,3-thiazole-5-carboxamide]
– | 6.00 to 7.00 | 6.00 to 7.00 | < 6.00 | > 7.00 | < 6.00 | > 7.00 | COC1(c2ccc(NC(=O)c3cc(NC(=O)c4cnc(N)s4)c(C)cc3F)nc2)CC1 [Example 260, 2-Amino-N-[4-fluoro-5-[[5-(1-methoxycyclopropyl)pyridin-2-yl]carbamoyl]-2-methylphenyl]-1,3-thiazole-5-carboxamide]
> 7.00 | < 6.00 | – | – | > 7.00 | < 6.00 | – | Cc1ncc(C(=O)Nc2cc(C(=O)Nc3cnc(OC(F)(F)F)cn3)c(F)cc2C)s1 [Example 87, N-[5-(N-5-trifluoromethoxy-2-pyrazinylcarbamoyl)-4-fluoro-2-tolyl]-2-methyl-1,3-thiazole-5-carboxamide]
> 7.00 | 6.00 to 7.00 | 6.00 to 7.00 | < 6.00 | > 7.00 | < 6.00 | – | Nc1ncc(C(=O)Nc2cc(C(=O)Nc3ccc(OC4CC4)cn3)c(F)cc2Cl)s1 [Example 209, 2-Amino-N-[2-chloro-5-[(5-cyclopropyloxypyridin-2-yl)carbamoyl]-4-fluorophenyl]-1,3-thiazole-5-carboxamide]
> 7.00 | < 6.00 | < 6.00 | – | > 7.00 | < 6.00 | – | Cc1cc(F)c(C(=O)Nc2ccn(-c3ccccn3)n2)cc1NC(=O)c1cnc(N)s1 [Example 168, 2-Amino-N-[4-fluoro-2-methyl-5-[(1-pyridin-2-ylpyrazol-3-yl)carbamoyl]phenyl]-1,3-thiazole-5-carboxamide]
> 7.00 | < 6.00 | – | – | > 7.00 | < 6.00 | – | Cc1ncc(C(=O)Nc2cc(C(=O)Nc3cnc(CC4CC4)cn3)c(F)cc2C)s1 [Example 91, N-{5-[N-5-(cyclopropylmethyl)-2-pyrazinylcarbamoyl]-4-fluoro-2-tolyl}-2-methyl-1,3-thiazole-5-carboxamide]
